Earlier results on 52 molecules are cited in patent publication US20240156825A1, “USE OF SELECTIVE VEGFR2 AND FGFR1 INHIBITORS” (Fountain Therapeutics Inc., priority 2022, published 2024).

The structures appear in SMILES notation. Like-named read-outs stand apart in the source and are kept apart here.

The target in data set [1] is VEGFR2 (Homo sapiens, UniProt P35968). To be noted: reported IC50 to VEGFR2, read-out: VEGFR2 IC50_μM, cited from earlier work.
Data set [2] concerns any gene target. To be noted: next lowest IC50 value to any gene target, read-out: Min IC50_μM, cited from earlier work.
Where [3] appears, read: Table 3, selective inhibitors of VEGFR2.

Chain of VEGFR2 (P35968 20-1356, species assumed): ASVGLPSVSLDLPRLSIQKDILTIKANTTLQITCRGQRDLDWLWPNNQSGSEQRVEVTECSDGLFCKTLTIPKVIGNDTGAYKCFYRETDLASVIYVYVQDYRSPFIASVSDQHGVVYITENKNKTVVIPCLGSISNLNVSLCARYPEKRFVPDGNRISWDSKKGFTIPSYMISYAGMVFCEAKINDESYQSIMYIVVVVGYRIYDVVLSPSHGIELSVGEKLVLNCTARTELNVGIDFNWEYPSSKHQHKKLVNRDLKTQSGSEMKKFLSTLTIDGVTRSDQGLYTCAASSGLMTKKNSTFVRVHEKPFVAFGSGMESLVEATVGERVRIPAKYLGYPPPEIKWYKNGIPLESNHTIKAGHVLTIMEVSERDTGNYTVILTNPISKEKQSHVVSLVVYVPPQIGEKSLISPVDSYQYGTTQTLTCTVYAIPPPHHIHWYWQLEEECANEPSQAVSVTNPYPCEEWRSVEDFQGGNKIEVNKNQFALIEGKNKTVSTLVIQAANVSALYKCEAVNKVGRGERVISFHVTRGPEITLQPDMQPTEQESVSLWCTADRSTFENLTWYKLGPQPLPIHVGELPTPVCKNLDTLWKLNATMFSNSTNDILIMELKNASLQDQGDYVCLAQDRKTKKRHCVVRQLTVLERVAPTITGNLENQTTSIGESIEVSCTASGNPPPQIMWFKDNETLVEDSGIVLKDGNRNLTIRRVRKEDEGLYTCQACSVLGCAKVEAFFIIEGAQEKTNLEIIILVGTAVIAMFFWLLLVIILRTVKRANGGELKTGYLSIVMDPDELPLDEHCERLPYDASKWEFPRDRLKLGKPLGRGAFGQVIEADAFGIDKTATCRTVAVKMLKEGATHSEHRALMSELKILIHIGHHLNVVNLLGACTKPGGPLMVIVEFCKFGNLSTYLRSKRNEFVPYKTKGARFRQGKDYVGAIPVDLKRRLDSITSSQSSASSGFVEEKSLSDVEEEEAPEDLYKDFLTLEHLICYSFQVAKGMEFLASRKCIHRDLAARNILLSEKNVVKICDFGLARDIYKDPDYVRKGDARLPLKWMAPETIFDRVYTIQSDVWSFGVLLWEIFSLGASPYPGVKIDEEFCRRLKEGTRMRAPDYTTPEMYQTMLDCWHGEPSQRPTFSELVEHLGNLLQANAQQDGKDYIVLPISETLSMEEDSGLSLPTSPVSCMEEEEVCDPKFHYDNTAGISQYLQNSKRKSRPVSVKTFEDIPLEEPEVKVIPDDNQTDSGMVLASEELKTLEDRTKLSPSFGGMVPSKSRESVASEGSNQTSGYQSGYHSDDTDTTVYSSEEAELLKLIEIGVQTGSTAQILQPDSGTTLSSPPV

For the molecule `COc1cc2c(Nc3ccc(Cl)c(Cl)c3)ncnc2cc1OCC1CN(S(C)(=O)=O)CCO1` (centres unmarked) [compound 57802901], the IC50 in data set [1] (setting [3]) and in data set [2] (Table 3) was 50 nM each time.
`COc1cc2c(Nc3ccc(Cl)c(Cl)c3F)ncnc2cc1OC[C@@H]1CN2CCC[C@@H]2C(=O)N1` [compound 53630924]: the IC50 in data set [1] (setting [3]) and in data set [2] (Table 3) was 50 nM in each case.
As for `COc1cc2c(Nc3ccc(Cl)c(Cl)c3)ncnc2cc1OCc1nc(N2CCNCC2)no1` [compound 57802679], the IC50 in data set [1] and in data set [2] was 50 nM in each case.
As to `COc1cc2c(Nc3cc(Cl)c(Cl)cc3F)ncnc2cc1OC[C@H]1CN2CCOC[C@H]2CO1` [compound 10346203], the IC50 in data set [1] (setting [3]) and in data set [2] (Table 3) was 50 nM in each case.
Turning to `COc1cc2c(Nc3ccc(Br)cc3F)ncnc2cc1OC/C=C/CN1CCCC1` [compound 22478260], the IC50 in data set [1] was 8 nM; in data set [2] it was 30 nM.
With `CCOc1cc2c(Nc3ccc(Cl)c(Cl)c3)ncnc2cc1OCC1CN(C)CCO1` (centres unmarked) [compound 57802695], the IC50 in data set [1] and in data set [2] was 50 nM in each case.
As for `Cc1nc2cc(N(C)c3ccnc(Nc4cccc(S(N)(=O)=O)c4)n3)ccc2n1C` [compound 10273854], the IC50 in data set [1] is 17 nM; in data set [2], 9000 nM.
Take `COc1cc2c(Nc3ccc(Cl)c(Cl)c3)ncnc2cc1OCC1CN(C(=NC#N)N2CCCC2)CCO1` (centres unmarked) [compound 57802904]: the IC50 in data set [1] (setting [3]) and in data set [2] (Table 3) was 50 nM each time.
As to `COc1cc2c(Nc3ccc(Cl)cc3F)ncnc2cc1OCC1CCN(C)CC1` [compound 23133320], the IC50 in data set [1] was 15 nM; in data set [2] it was 50 nM.
Regarding `C[C@@H]1CN(C(=O)CCCC(=O)N2C[C@@H](C)c3c2cc(O)c2ccccc32)c2cc(O)c3ccccc3c21` [compound 155536201], the IC50 was 330 nM in data set [1] and 540 nM in data set [2].
Take `COc1cc2c(Nc3ccc(Cl)cc3F)ncnc2cc1OC/C=C/CN1CCCC1` [compound 22478297]: the IC50 in data set [1] (setting [3]) and in data set [2] (Table 3) was 40 nM in each case.
`COc1cc2nccc(Oc3ccc4c(C(=O)NC(C)C)cccc4c3)c2cc1OC` [compound 24822600]: the IC50 is 5 nM in data set [1] and 190 nM in data set [2].
With `COc1cc2c(Oc3ccc(NC(=O)C4(C(=O)Nc5ccc(F)cc5)CC4)cc3F)ccnc2cc1OCCCC(=O)NO` [compound 71466525], the IC50 is 12 nM in data set [1] and 19 nM in data set [2].
Consider `COc1cc2c(Nc3ccc(Br)c(Cl)c3Cl)ncnc2cc1OC[C@@H]1CN2CCOC[C@H]2CO1` [compound 66838558], for which the IC50 in data set [1] (setting [3]) and in data set [2] (Table 3) was 50 nM each time.
For the molecule `COc1cc2c(Nc3ccc(Cl)cc3F)ncnc2cc1OCCCN1CCCC1` [compound 73352657], the IC50 in data set [1] (setting [3]) and in data set [2] (Table 3) was 8 nM in each case.
Consider `COc1cc2c(Nc3ccc(Br)c(C)c3)ncnc2cc1OCC1CN(C)CCO1` (centres unmarked) [compound 57802842], for which the IC50 in data set [1] (setting [3]) and in data set [2] (Table 3) was 50 nM in each case.
As to `COc1cc2c(Nc3ccc(Cl)c(Cl)c3F)ncnc2cc1OC[C@@H]1CN2CCOC[C@H]2CO1` [compound 66838539], the IC50 in data set [1] (setting [3]) and in data set [2] (Table 3) was 50 nM each time.
For the molecule `CCS(=O)(=O)N1CCOC(COc2cc3ncnc(Nc4ccc(Cl)c(Cl)c4)c3cc2OC)C1` (centres unmarked) [compound 57802817], the IC50 in data set [1] (setting [3]) and in data set [2] (Table 3) was 50 nM throughout.
With `COc1cc2c(Nc3ccc(Cl)cc3F)ncnc2cc1OC[C@@H]1CCCN(C)C1` [compound 5329055], the IC50 in data set [1] was 5 nM; in data set [2], 80 nM.
In the case of `COc1cc2c(Nc3ccc(Cl)c(Cl)c3)ncnc2cc1OCC1CN(C(C)=O)CCCO1` (centres unmarked) [compound 57802725], the IC50 in data set [1] and in data set [2] was 50 nM in each case.
As to `COc1cc2c(Nc3ccc(Cl)c(Cl)c3F)ncnc2cc1OC[C@@H]1CN(C)CC(=O)N1` [compound 57802639], the IC50 in data set [1] (setting [3]) and in data set [2] (Table 3) was 50 nM throughout.
In the case of `COc1cc2c(Nc3ccc(Br)c(Cl)c3C)ncnc2cc1OCC1CN(C)CCO1` (centres unmarked) [compound 57802867], the IC50 in data set [1] (setting [3]) and in data set [2] (Table 3) was 50 nM in each case.
For the molecule `CC(C)(Nc1nc(NO)nc(Nc2ccc3ncsc3c2)n1)c1ccccc1` [compound 10249989], the results for the IC50 in data set [1] and in data set [2] were 40 nM and 420 nM, respectively.
Take `COc1cc2c(Nc3ccc(C#N)cc3F)ncnc2cc1OC/C=C/CN1CCCC1` [compound 5329040]: the figures for the IC50 in data set [1] and in data set [2] were 230 nM and 500 nM, respectively.
For the molecule `C[C@@H](Nc1ncnc2[nH]c(-c3ccc(CN4CCN(CCCCCCC(=O)NO)CC4)cc3)cc12)c1ccccc1` [compound 24900443], the IC50 in data set [1] and in data set [2] was 100 nM each time.
Regarding `O=C(NC1CC1)c1cc(NCc2cnc(Nc3ccccn3)s2)c(F)cc1F` [compound 11632737], the figures for the IC50 in data set [1] and in data set [2] were 23 nM and 200 nM, respectively.
Take `COc1cc2c(Nc3cc(Cl)c(Br)cc3F)ncnc2cc1OC[C@H]1CN2CCOC[C@H]2CO1` [compound 10030541]: the IC50 in data set [1] (setting [3]) and in data set [2] (Table 3) was 50 nM in each case.
For the molecule `CCN1CCN(Cc2ccc(NC(=O)c3ccc(C)c(NC(=O)c4cncc(-c5cccs5)c4)c3)cc2C(F)(F)F)CC1` [compound 42628503], the IC50 in data set [1] (setting [3]) and in data set [2] (Table 3) was 500 nM each time.
With `COc1cc2c(Nc3ccc(Cl)c(Cl)c3F)ncnc2cc1OC[C@@H]1CN2CCC[C@H]2CO1` [compound 57802793], the IC50 in data set [1] (setting [3]) and in data set [2] (Table 3) was 50 nM throughout.
In the case of `COc1cc2c(Nc3cc(O)c(C)cc3F)ncnc2cc1OCC1CCN(C)CC1` [compound 49860186], the IC50 is 7 nM in data set [1] and 25 nM in data set [2].
For the molecule `COc1cc2c(Nc3ccc(F)c(Cl)c3F)ncnc2cc1OC[C@@H]1CN2CCC[C@H]2CO1` [compound 58013819], the IC50 in data set [1] (setting [3]) and in data set [2] (Table 3) was 50 nM each time.
On to `COc1cc2c(Nc3ccc(Cl)c(Cl)c3)ncnc2cc1OCCC1CNC(C)(C)CO1` (centres unmarked) [compound 57802637], for which the IC50 in data set [1] and in data set [2] was 50 nM in each case.
On to `COc1cc2c(Nc3ccc(Cl)cc3F)ncnc2cc1OCCN(C)c1ccncc1` [compound 5329026], for which the IC50 is 6 nM in data set [1] and 100 nM in data set [2].
`COc1cc2c(Nc3ccc(Cl)c(Cl)c3)ncnc2cc1OCC1CN(S(C)(=O)=O)CCCO1` (centres unmarked) [compound 57802556]: the IC50 in data set [1] (setting [3]) and in data set [2] (Table 3) was 50 nM throughout.
For `COc1cc(O)c2c(c1)CCC[C@H](O)CC(=O)/C=C\C[C@H](C)OC2=O` [compound 53324451], the IC50 was 5.8 nM in data set [1] and 7.23 nM in data set [2].
On to `COc1cc2c(Nc3cc(Cl)c(Cl)cc3F)ncnc2cc1OCC1CN(C)C(C)(C)CO1` (centres unmarked) [compound 57802853], for which the IC50 in data set [1] (setting [3]) and in data set [2] (Table 3) was 50 nM in each case.
On to `Cc1ccc(NC(=O)C2(C(=O)Nc3ccc(Nc4ncc(F)c(-c5cc(F)c6nc(C)n(C(C)C)c6c5)n4)cc3)CC2)cc1` [compound 155517777], for which the IC50 in data set [1] (setting [3]) and in data set [2] (Table 3) was 46 nM each time.
With `COc1cc2c(Nc3ccc(Cl)cc3F)ncnc2cc1OCC1CCNCC1` [compound 73349643], the results for the IC50 in data set [1] and in data set [2] were 50 nM and 60 nM, respectively.
Consider `C[C@@H](Nc1ncnc2[nH]c(-c3ccc(C(=O)NO)cc3)cc12)c1ccccc1` [compound 24900715], for which the IC50 in data set [1] (setting [3]) and in data set [2] (Table 3) was 100 nM in each case.
On to `O=C(Nc1ccc(Oc2ncnc3sc4c(c23)CCCC4)cc1)Nc1cccc(Br)c1` [compound 122193773], for which the IC50 was 11 nM in data set [1] and 17 nM in data set [2].
In the case of `COc1cc2ncnc(Nc3cccc(Cl)c3)c2cc1OCCC(=O)NO` [compound 122195525], the IC50 is 476 nM in data set [1] and 645 nM in data set [2].
For the molecule `COc1cc2c(Nc3ccc(Cl)c(Cl)c3C)ncnc2cc1OCC1CN(C)CCO1` (centres unmarked) [compound 57802584], the IC50 in data set [1] (setting [3]) and in data set [2] (Table 3) was 50 nM in each case.
On to `COc1cc2c(Nc3ccc(Br)c(Cl)c3Cl)ncnc2cc1OC[C@@H]1CO[C@H]2[C@@H]1OC[C@@H]2OC` [compound 66954887], for which the IC50 in data set [1] (setting [3]) and in data set [2] (Table 3) was 50 nM in each case.
In the case of `OCCCCNc1cncc(-c2cncc(Nc3cccc(Cl)c3)n2)c1` [compound 5330388], the IC50 in data set [1] is 63 nM; in data set [2], 2360 nM.
`COc1cc2c(Nc3ccc(Cl)c(Cl)c3)ncnc2cc1OCC1CN(C)C(C)(C)C(=O)O1` (centres unmarked) [compound 57802818]: the IC50 in data set [1] (setting [3]) and in data set [2] (Table 3) was 50 nM in each case.
On to `CCC(=O)N1CCOC(COc2cc3ncnc(Nc4ccc(Cl)c(Cl)c4)c3cc2OC)C1` (centres unmarked) [compound 57802906], for which the IC50 in data set [1] (setting [3]) and in data set [2] (Table 3) was 50 nM each time.
As for `CCN1CCCOC(COc2cc3ncnc(Nc4ccc(Cl)c(Cl)c4)c3cc2OC)C1` (centres unmarked) [compound 57802623], the IC50 in data set [1] (setting [3]) and in data set [2] (Table 3) was 50 nM in each case.
Regarding `CN1CCC(COc2ccc3c(Nc4ccc(NC(=O)Nc5cccc(F)c5)cc4)ncnc3c2)CC1` [compound 56835147], the IC50 in data set [1] is 5.5 nM; in data set [2], 9.6 nM.
In the case of `COc1cc2c(Nc3ccc(Cl)c(Cl)c3)ncnc2cc1OC[C@@H]1CO[C@H]2[C@@H]1OC[C@@H]2OC` [compound 66955051], the IC50 in data set [1] (setting [3]) and in data set [2] (Table 3) was 50 nM throughout.
For `COc1cc2c(Nc3ccc(Cl)c(Cl)c3)ncnc2cc1OCC1CN(C(=O)c2c(C)noc2C)CCO1` (centres unmarked) [compound 57802871], the IC50 in data set [1] (setting [3]) and in data set [2] (Table 3) was 50 nM throughout.
Take `COc1cc2c(Nc3ccc(Cl)c(Cl)c3)ncnc2cc1OCc1nc(N2CCN(C)CC2)no1` [compound 57802605]: the IC50 in data set [1] (setting [3]) and in data set [2] (Table 3) was 50 nM each time.
Take `COc1cc2c(Nc3c(F)cc(Cl)cc3F)ncnc2cc1OCC1CCN(C)CC1` [compound 5329045]: the IC50 in data set [1] is 25 nM; in data set [2], 60 nM.
